Columns and labels:
[1] = target: T1, Mitogen-activated protein kinase kinase kinase 5 (Homo sapiens) (UniProt Q99683); test: Selectivity interaction (ActivX KiNativ screen (kinase selectivity in THP-1 cell lysates)) EUB0000639a MAP3K5; assay type: subcellular; details: lysate, at 5 µM
T1 sequence (whole entry): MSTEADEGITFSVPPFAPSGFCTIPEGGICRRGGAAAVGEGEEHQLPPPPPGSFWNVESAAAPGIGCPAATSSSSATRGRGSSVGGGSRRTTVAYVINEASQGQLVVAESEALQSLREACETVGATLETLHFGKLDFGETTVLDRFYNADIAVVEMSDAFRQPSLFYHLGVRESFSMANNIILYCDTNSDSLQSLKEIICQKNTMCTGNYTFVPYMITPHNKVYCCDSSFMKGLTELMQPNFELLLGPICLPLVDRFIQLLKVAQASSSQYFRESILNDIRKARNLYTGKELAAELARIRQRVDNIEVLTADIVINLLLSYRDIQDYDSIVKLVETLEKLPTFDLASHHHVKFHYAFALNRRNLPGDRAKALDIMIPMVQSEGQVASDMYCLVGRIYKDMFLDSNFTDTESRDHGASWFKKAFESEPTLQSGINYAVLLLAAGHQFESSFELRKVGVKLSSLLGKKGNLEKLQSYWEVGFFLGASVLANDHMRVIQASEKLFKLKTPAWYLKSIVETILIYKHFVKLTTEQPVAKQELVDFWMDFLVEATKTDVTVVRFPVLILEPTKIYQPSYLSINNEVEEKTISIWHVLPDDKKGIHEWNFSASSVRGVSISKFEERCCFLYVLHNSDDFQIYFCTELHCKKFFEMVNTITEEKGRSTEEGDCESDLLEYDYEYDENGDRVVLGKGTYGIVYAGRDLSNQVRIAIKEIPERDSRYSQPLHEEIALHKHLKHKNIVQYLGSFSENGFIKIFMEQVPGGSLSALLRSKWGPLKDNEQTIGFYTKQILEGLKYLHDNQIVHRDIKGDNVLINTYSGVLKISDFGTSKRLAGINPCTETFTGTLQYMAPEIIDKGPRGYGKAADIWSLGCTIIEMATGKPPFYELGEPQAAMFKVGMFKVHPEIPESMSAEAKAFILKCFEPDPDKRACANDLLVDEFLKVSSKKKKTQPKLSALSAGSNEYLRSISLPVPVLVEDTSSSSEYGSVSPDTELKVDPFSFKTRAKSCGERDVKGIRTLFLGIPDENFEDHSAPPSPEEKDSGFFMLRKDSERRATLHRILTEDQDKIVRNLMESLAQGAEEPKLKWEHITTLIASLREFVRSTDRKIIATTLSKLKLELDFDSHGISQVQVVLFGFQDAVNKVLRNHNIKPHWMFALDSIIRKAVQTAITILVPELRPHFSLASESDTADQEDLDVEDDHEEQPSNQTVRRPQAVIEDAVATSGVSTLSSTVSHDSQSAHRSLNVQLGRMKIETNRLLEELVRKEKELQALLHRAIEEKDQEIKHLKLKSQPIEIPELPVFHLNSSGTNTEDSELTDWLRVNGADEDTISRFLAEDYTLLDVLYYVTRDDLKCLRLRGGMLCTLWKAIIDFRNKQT

[2] = target: cAMP-dependent protein kinase catalytic subunit alpha (Homo sapiens, UniProt P17612); test: Selectivity interaction (KinomeScan (DiscoverX)) EUB0000607a PRKACA; details: at 10 µM
[3] = target: Wee1-like protein kinase (Homo sapiens) (UniProt P30291); test: Selectivity interaction (KinomeScan (DiscoverX)) EUB0000595a WEE1; details: at 10 µM
[4] = target: T2, cGMP-dependent protein kinase 2 (Homo sapiens) (UniProt Q13237); test: Selectivity interaction (KinomeScan (DiscoverX)) EUB0000595a PRKG2; details: at 10 µM
T2 sequence (whole entry): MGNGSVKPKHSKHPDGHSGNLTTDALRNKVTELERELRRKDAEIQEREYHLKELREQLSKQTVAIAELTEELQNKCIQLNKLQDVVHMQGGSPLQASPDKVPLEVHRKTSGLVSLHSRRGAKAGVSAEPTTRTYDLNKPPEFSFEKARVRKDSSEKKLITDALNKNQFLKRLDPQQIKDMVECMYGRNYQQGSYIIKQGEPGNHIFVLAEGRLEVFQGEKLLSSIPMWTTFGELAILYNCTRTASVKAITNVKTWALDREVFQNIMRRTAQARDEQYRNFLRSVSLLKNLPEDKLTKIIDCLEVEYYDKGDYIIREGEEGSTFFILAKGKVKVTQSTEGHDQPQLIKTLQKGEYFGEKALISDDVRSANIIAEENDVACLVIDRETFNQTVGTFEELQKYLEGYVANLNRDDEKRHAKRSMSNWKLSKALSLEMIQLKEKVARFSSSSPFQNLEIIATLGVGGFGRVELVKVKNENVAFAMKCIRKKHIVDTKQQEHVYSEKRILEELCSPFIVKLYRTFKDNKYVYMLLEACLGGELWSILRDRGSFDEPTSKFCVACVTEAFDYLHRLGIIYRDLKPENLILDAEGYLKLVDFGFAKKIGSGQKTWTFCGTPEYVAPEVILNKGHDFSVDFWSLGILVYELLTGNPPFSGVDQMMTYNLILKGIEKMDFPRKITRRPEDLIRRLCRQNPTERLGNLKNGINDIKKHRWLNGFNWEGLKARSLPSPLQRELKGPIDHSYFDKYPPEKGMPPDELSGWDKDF

Sequence of Wee1-like protein kinase (Homo sapiens) (P30291 whole entry, looked up): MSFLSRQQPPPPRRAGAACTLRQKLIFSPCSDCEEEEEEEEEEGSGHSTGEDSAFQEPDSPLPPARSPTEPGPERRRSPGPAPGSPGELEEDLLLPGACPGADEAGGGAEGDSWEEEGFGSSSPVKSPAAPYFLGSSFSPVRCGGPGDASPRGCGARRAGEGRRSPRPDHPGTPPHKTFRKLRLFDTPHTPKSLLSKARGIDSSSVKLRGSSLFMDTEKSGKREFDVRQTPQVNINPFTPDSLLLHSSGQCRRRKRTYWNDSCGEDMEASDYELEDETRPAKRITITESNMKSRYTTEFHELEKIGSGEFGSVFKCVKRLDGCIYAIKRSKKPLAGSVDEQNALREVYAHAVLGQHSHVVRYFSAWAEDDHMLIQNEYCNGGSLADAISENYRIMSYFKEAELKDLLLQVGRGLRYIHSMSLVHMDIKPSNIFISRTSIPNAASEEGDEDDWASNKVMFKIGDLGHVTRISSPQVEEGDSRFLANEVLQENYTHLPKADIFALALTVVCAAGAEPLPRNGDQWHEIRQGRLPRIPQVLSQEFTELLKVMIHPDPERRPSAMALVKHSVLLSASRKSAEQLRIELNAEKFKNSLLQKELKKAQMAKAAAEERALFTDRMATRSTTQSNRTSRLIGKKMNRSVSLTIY

CC[C@@H]1[C@H](F)C(=O)N[C@@H]1COc1nccc2cc(C(N)=O)c(OC)cc12 [ZIMLOVISERTIB]
% of inhibition [1]: -16.2%

CNC(=O)Nc1ccc(-c2nc(N3CC4CCC(C3)O4)c3cnn(C4CCC5(CC4)OCCO5)c3n2)cc1
% of control [2]: 75%

COCC(=O)NC/C=C/c1ccc2ncnc(Nc3ccc(Oc4ccc(C)nc4)c(C)c3)c2c1 [CP-724714]
% of control [3]: 100% | % of control [4]: 100%
